Common to all, as to experiment: NCI anticancer screen, dose series, 48 h
In assay [1] the test system is KM12 colon.
For assay [2], the system named is OVCAR-3 ovarian.
In assay [3] the test system is ACHN renal.
For assay [4], the system named is MDA-N.
Assay [5] concerns LOX IMVI melanoma.
Assay [6] deals with SNB-75 CNS.
The subject of assay [7] is MCF7 breast.
Assay [8] deals with DU-145 prostate.
Assay [9] deals with U251 CNS.
Assay [10] concerns SF-268 CNS.
Assay [11] deals with HCT-15 colon.
In assay [12] the test system is M14 melanoma.
The subject of assay [13] is IGROV1 ovarian.

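These data come from cells grown in 96-well plates and exposed to compound for 48 hours at five concentrations. TGI: total growth inhibition.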

The record followed here is PubChem BioAssay (NCI).

Consider `CC(C)(C)Cc1cc(O)ccc1O`, for which the TGI in assay [1], in [2], in [3], in assay [4], in [5] and in [6] was > 100 µM in each case. Also, the TGI in assay [7], in assay [8], in [9], in [10], in assay [11] and in assay [12] was > 100 µM in each case. Also, the TGI in [13] was > 100 µM.
Take `Cc1ccc(C2=Nn3c(nc4sc5c(c4c3=O)CCCC5)SC2)cc1`: the TGI in assay [1], in assay [2], in assay [3], in [4], in [5] and in assay [6] was > 100 µM throughout. The TGI in assay [7], in assay [8], in assay [9], in assay [10], in assay [11] and in assay [13] was > 100 µM throughout.
For the molecule `CC1(C)N([O-])[N+](=O)C1(Br)c1ccccc1` (stereo not given), the TGI in assay [1], in assay [2], in [3], in assay [4], in [5] and in assay [6] was > 100 µM throughout. In addition, the TGI in assay [7], in assay [8], in assay [9], in assay [10], in assay [11] and in assay [12] was > 100 µM each time. Also, the TGI in [13] was > 100 µM.
For the molecule `O=[N+]([O-])c1cc2ccc1OCc1cccc(n1)COc1ccc(cc1[N+](=O)[O-])C=NCCCCCCCCN=C2`, the TGI in assay [1], in assay [2], in assay [3], in [4], in [5] and in assay [6] was > 100 µM throughout. In addition, the TGI in assay [7], in assay [8], in assay [9], in assay [10], in assay [11] and in assay [12] was > 100 µM throughout. For the same molecule, the TGI in [13] was > 100 µM.
For `Nc1ncnc2c1ncn2[C@@H]1C[C@H](NO)[C@@H](O)[C@H]1O`, the TGI in assay [1], in assay [2], in assay [3], in assay [4], in [5] and in assay [6] was > 100 µM in each case. For the same molecule, the TGI in assay [7], in assay [8], in assay [9], in [10], in assay [11] and in assay [12] was > 100 µM each time. Moreover, the TGI in assay [13] was > 100 µM.
Turning to `CCOC(=O)CON=c1c2ccccc2ccc2ccccc12`, the TGI in assay [1], in assay [2], in assay [3], in assay [4], in assay [5] and in assay [6] was > 100 µM each time. Also, the TGI in assay [7], in [8], in [9], in [10], in [11] and in assay [12] was > 100 µM each time. Further, the TGI in assay [13] was > 100 µM.
Consider `COC(=O)/C(C#N)=C(/NCc1ccccc1)Nc1ccccc1`, for which the TGI in [2], in assay [3], in assay [4], in assay [5], in [6] and in assay [7] was > 100 µM throughout. Further, the TGI in assay [8], in [9], in [10], in assay [11], in [12] and in [13] was > 100 µM throughout.
Regarding `COc1ccc(C(c2cc(OC)c(OC)c(OC)c2)N2C(=O)CCC2C(=O)O)cc1` (stereo not given), the TGI in assay [1] was > 100 µM; in assay [2] it was > 100 µM; in [3] it was > 100 µM; in [4], 56.9 µM; in assay [5], > 100 µM; in assay [6], > 100 µM. Moreover, the TGI in [7], in assay [8], in assay [9], in assay [10], in [11] and in assay [12] was > 100 µM in each case. Further, in [13], the TGI is > 100 µM.
Take `CC(C)N(C(=O)C12C3(C(=O)C(C)(C)C)C4C5(C#N)C3C1(C(=O)C(C)(C)C)C5C42C(=O)C(C)(C)C)C(C)C` (stereo not given): the TGI in assay [1] is > 100 µM; in [2], > 100 µM; in assay [3], > 100 µM; in assay [4], > 100 µM; in [5] it was > 100 µM; in [6], 91 µM. Besides, the TGI in assay [7], in assay [8], in [9], in [10], in assay [11] and in assay [12] was > 100 µM each time. Moreover, in assay [13], the TGI is > 100 µM.
Regarding `CCC1(CC)C(=O)NN(C(=O)c2ccc(Cl)cc2)C1=O`, the TGI in assay [1], in assay [2], in assay [3], in assay [4], in assay [5] and in assay [6] was > 100 µM in each case. Also, the TGI in assay [7], in assay [8], in assay [9], in [10], in assay [11] and in assay [12] was > 100 µM each time. Moreover, in [13], the TGI is > 100 µM.
With `CC(C(=O)O)C1Nc2ccccc2NC1=O` (stereo not given), the TGI in [1], in [2], in assay [3], in [4], in assay [5] and in assay [6] was > 100 µM in each case. Moreover, the TGI in assay [7], in [8], in assay [9], in assay [10], in assay [11] and in assay [12] was > 100 µM in each case. The TGI in assay [13] is > 100 µM.
For the molecule `COCCNC1CCC(=O)c2[nH]c3ccccc3c21` (stereo not given), the TGI in assay [1], in assay [2], in [3], in assay [4], in assay [5] and in [6] was > 100 µM throughout. Moreover, the TGI in assay [7], in [8], in assay [9], in [10], in [11] and in assay [12] was > 100 µM each time. Moreover, in assay [13], the TGI was > 100 µM.
For `[O-]/[N+](=N/c1ncc(-c2ccccc2)cn1)c1ncc(-c2ccccc2)cn1`, the TGI in assay [1], in assay [2], in assay [3], in [4], in assay [5] and in [6] was > 100 µM throughout. Further, the TGI in [7], in [8], in assay [9], in assay [10], in assay [11] and in [12] was > 100 µM each time. Also, in assay [13], the TGI is > 100 µM.
Consider `Cc1ccccc1C1CC(=O)CC(c2ccccc2C)C12C(=O)NC(=S)NC2=O` (stereo not given), for which the TGI is 53.6 µM in assay [1]; 82.8 µM in assay [2]; 38.6 µM in [3]; > 100 µM in assay [4]; 35.8 µM in [5]; 70.7 µM in [6]. The TGI in [7] is > 100 µM; in assay [8], > 100 µM; in assay [9], > 100 µM; in [10], > 100 µM; in assay [11], 56.6 µM; in [12], 91.8 µM.
With `CN(C(=O)c1cc2c(s1)sc1c(=O)n(C)c3ccccc3c12)c1ccccc1`, the TGI in assay [1] was > 100 µM; in assay [2], > 100 µM; in [3], 66.6 µM; in assay [4], > 100 µM; in [5] it was > 100 µM; in [6], > 100 µM. Besides, the TGI in assay [7], in assay [8], in assay [9], in [11], in assay [12] and in [13] was > 100 µM in each case.
For the molecule `CNc1cccc2c1C(C)C[C@]1(C)C(=O)Nc3ccccc3[C@H]21` (stereo not given in full), the TGI in assay [1] is 87.1 µM; in assay [2], 34.6 µM; in assay [3], 50.8 µM; in assay [4], 69.9 µM; in assay [5], 33.7 µM; in assay [6], 28.3 µM. Besides, the TGI in assay [7] is 47.4 µM; in [8] it was > 100 µM; in assay [10] it was > 100 µM; in assay [11], > 100 µM; in assay [12] it was 41.5 µM; in assay [13], > 100 µM.
On to `CC(C)(C)OC(=O)NC(Cc1ccc(OCc2ccccc2)cn1)C(N)=O` (stereo not given), for which the TGI in [1], in assay [2], in [3], in assay [4], in [5] and in assay [6] was > 100 µM in each case. Besides, the TGI in [7], in assay [8], in assay [9], in assay [10], in assay [11] and in assay [13] was > 100 µM in each case.
For `COc1cc(/C=C2\C(=O)N(c3ccc(NC(C)=O)cc3)C(c3ccccc3)S2(=O)=O)cc(OC)c1OC` (stereo not given), the TGI in [1], in assay [2], in assay [3], in [4], in assay [5] and in assay [6] was > 100 µM each time. Moreover, the TGI in assay [7], in assay [8], in assay [9], in assay [11], in [12] and in assay [13] was > 100 µM in each case.
With `CCOC(=O)C(C)c1nc2cc(C(F)(F)F)ccc2[nH]c1=O` (stereo not given), the TGI in assay [1], in [2], in assay [3], in assay [4], in [5] and in assay [6] was > 100 µM each time. Also, the TGI in assay [7], in assay [8], in assay [9], in assay [10], in [11] and in assay [12] was > 100 µM throughout.
As to `N#CCCN(CCCN(C(=O)Nc1ccc(NC(=O)N(CCCN(CCC#N)C(N)=O)c2ccccc2)cc1)c1ccccc1)C(N)=O`, the TGI in assay [1], in assay [2], in assay [3], in [4], in assay [5] and in assay [6] was > 100 µM throughout. In addition, the TGI in [7], in assay [8], in assay [9], in assay [10], in [11] and in assay [12] was > 100 µM throughout.
With `COC(=O)C1=C(C(=O)OC)C(OO)(c2ccccc2)OC1=O` (stereo not given), the TGI in assay [1] was > 100 µM; in [2] it was > 100 µM; in assay [3] it was > 100 µM; in assay [4], > 100 µM; in assay [5], 96 µM; in [6], > 100 µM. Further, the TGI in assay [7], in [8], in assay [9], in assay [11], in assay [12] and in assay [13] was > 100 µM in each case.
Take `CNC(=O)OCc1nc(N=[N+]=[N-])n(C)c1COC(=O)NC`: the TGI in assay [1], in assay [2], in [3], in assay [4], in assay [5] and in assay [6] was > 100 µM throughout. The TGI in assay [7], in [8], in [9], in [10], in [11] and in [13] was > 100 µM each time.
